Measurements: patent publication US8440654B2, “Thieno- and furo-pyrimidine modulators of the histamine H4 receptor” (Janssen Pharmaceutica NV, priority 2007, dated 2013)
Where a name gives a salt, the structure may show the parent alone.

molecular target: T1, human histamine H4 receptor (Homo sapiens, UniProt Q9H3N8); assay: Binding Assay on Recombinant Human Histamine H4 Receptor; conditions: competition binding with 3H-histamine, membranes of SK-N-MC or COS7 cells transfected with human H4R; average of results obtained
T1 construct: expressed in transfected cells; host or cells: SK-N-MC cells or COS7 cells, transiently transfected with pH4R; membrane preparation
T1 sequence (Q9H3N8 whole entry): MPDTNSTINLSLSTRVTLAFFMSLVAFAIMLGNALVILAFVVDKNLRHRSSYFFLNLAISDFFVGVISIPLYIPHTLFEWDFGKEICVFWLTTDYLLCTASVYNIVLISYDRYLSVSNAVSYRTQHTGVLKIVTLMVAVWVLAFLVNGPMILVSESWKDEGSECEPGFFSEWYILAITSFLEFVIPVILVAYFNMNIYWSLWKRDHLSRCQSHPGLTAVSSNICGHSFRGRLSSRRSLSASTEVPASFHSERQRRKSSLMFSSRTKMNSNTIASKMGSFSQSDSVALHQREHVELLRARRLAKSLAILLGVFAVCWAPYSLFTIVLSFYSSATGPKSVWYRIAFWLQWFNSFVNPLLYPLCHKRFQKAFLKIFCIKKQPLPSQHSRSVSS
Experimental: Biological Methods: Binding Assay on Recombinant Human Histamine H4 Receptor.
SK-N-MC cells or COS7 cells were transiently transfected with pH4R and grown in 150 cm^2 tissue culture dishes. Cells were washed with saline solution, scraped with a cell scraper and collected by centrifugation (1000 rpm, 5 min). Cell membranes were prepared by homogenization of the cell pellet in 20 mM Tris-HCl with a polytron tissue homogenizer for 10 sec at high speed. Homogenate was centrifuged at 1000 rpm for 5 min at 4° C. The supernatant was then collected and centrifuged at 20,000×g for 25 min at 4° C. The final pellet was resuspended in 50 mM Tris-HCl. Cell membranes were incubated with ^3H-histamine (5-70 nM) in the presence or absence of excess histamine (10,000 nM). Incubation occurred at room temperature for 45 min. Membranes were harvested by rapid filtration over Whatman GF/C filters and washed 4 times with ice-cold 50 mM Tris HCl. Filters were then dried, mixed with scintillant and counted for radioactivity. SK-N-MC or COS7 cells expressing human histamine H4 receptor were used to measure the affinity of binding of other compounds and their ability to displace ^3H-ligand binding by incubating the above-described reaction in the presence of various concentrations of inhibitor or compound to be tested. For competition binding studies using ^3H-histamine, K values were calculated, based on an experimentally determined KD value of 5 nM and a ligand concentration of 5 nM, according to Y.-C.

Compound	Ki
4-[(1S,4S)-2,5-Diazabi- cyclo]2.2.1-2-yl]hept-2-yl]- 6,7,8,9-tetrahydro[1]benzo- thieno[3,2-d]pyrimidin-2- amine [Example 35]	0.417 µM
CN[C@H]1CCN(c2nc(N)nc3c4c(sc23)CCCC4)C1 (single isomer, unassigned) [Example 31]	0.005 µM
CNC1CCN(c2nc(N)nc3c(C)csc23)C1 (stereo in doubt) [Example 12, 7-Methyl-4-[(3R)-3-(methylamino)pyrrolidin-1-yl]thieno[3,2-d]pyrimidin-2-amine]	0.182 µM
CNC1CCN(c2nc(N)nc3c(Br)csc23)C1 (stereo in doubt) [Example 14, 7-Bromo-4-(3R)-3-(methyl-amino)pyrrolidin-1-yl-d]pyrimidin-2-amine tri-fluoroacetic acid salt]	1.05 µM
CC(C)(C)c1cc2nc(N)nc(N3CCC(N)C3)c2s1 (stereo in doubt) [Example 18, 4-[(3R)-3-Aminopyrrolidin-1-yl]-6-tert-butylthieno[3,2-d]pyrimidin-2-amine trifluoroacetic acid salt]	0.221 µM
CNC1CCN(c2nc(N)nc3c4c(oc23)CCCC4)C1 (stereo in doubt) [Example 21, 4-[(3R)-3-(Methyl-amino)pyrrolidin-1-yl]-6,7,8,9-tetrahydro[1]benzo-furo[3,2-d]pyrimidin-2-amine trifluoro acid salt]	0.003 µM
CNC1CCN(c2ncnc3c4c(oc23)CCCC4)C1 (stereo in doubt) [Example 28, (3R)-N-Methyl-1-(6,7,8,9-tetrahydro[1]benzofuro[3,2-d]pyrimidin-4-yl)pyrrolidin-3-amine]	0.066 µM
CCNC1CCN(c2nc(N)nc3c4c(sc23)CCCC4)C1 (stereo in doubt) [Example 40, 4-[(3R)-3-(Ethyl-amino)pyrrolidin-1-yl]-6,7,8,9-tetrahydro[1]benzo-thieno[3,2-d]pyrimidin-2-amine trifluoroacetic acid salt]	0.503 µM
CNC1CCN(c2nc(N)nc3c4c(sc23)CCCCC4)C1 (stereo in doubt) [Example 47, trifluoroacetic acid salt]	0.005 µM
Nc1nc(N2CCC(N)C2)c2sc3c(c2n1)CCCC3 (stereo in doubt) [Example 56, 4-[(3R)-3-Aminopyrrolidin-1-yl]-6,7,8,9-tetrahy-dro[1]benzothieno[3,2-d]pyrimidin-2-amine trifluoracetic acid salt]	0.01 µM
CN1CCN(c2nc(N)nc3ccsc23)CC1 [Example 1, 4-(4-Methyl-piperazin-1-yl)-thieno[3,2-d]pyrimidin-2-ylamine]	0.503 µM
CN1CCN(c2nc(N)nc3c4c(sc23)CCCC4)CC1 [Example 2, 4-(4-Methyl-piperazin-1-yl)-6,7,8,9-tetrahydro-benzo[4,5]thieno[3,2-d]pyrimidin-2-ylamine]	0.013 µM
Nc1nc(N2CCNCC2)c2sc3c(c2n1)CCCC3 [Example 3, 4-piperazin-1-yl-6,7,8,9-tetrahydro-benzo[4,5]thieno[3,2-d]pyrimidin-2-ylamine]	0.023 µM
Nc1nc(N2C[C@H]3CCN[C@H]3C2)c2sc3c(c2n1)CCCC3 [Example 4, 4-[(3aR,6aR)-Hexahydropyrrolo[3,4-b]pyrrol-5(1H)-yl]-6,7,8,9-tetrahydro[1]benzothieno[3,2-d]pyrimidin-2-amine]	0.021 µM
CN1CCN(c2nc(N)nc3c4c(oc23)CCCC4)CC1 [Example 5, 4-(4-Methyl-piperazin-1-yl)-6,7,8,9-tetrahydro-benzo[4,5]furo[3,2-d]pyrimidin-2-ylamine]	0.008 µM
Nc1nc(N2CCNCC2)c2oc3c(c2n1)CCCC3 [Example 6, 4-piperazin-1-yl-6,7,8,9-tetrahydro-benzo[4,5]furo[3,2-d]pyrimidin-2-ylamine]	0.005 µM
Nc1nc(N2C[C@H]3CCN[C@H]3C2)c2oc3c(c2n1)CCCC3 [Example 7, 4-[(3aR,6aR)-Hexahydropyrrolo[3,4-b]pyrrol-5(1H)-yl]-6,7,8,9-tetrahydro[1]benzofuro[3,2-d]pyrimidin-2-amine]	0.003 µM
CN1CCN(c2ncnc3c4c(oc23)CCCC4)CC1 [Example 8, 4-(4-Methyl-piperazin-1-yl)-6,7,8,9-tetrahydro-benzo[4,5]furo[3,2-d]pyrimidine]	0.053 µM
c1nc(N2CCNCC2)c2oc3c(c2n1)CCCC3 [Example 9, 4-piperazin-1-yl-6,7,8,9-tetrahydro-benzo[4,5]furo[3,2-d]pyrimidine]	0.11 µM
CN1CCN(c2ncnc3c4c(sc23)CCCC4)CC1 [Example 10, 4-(4-Methyl-piperazin-1-yl)-6,7,8,9-tetrahydro-benzo[4,5]thieno[3,2-d]pyrimidine]	0.132 µM

Compound	Ki
c1nc(N2CCNCC2)c2sc3c(c2n1)CCCC3 [Example 11, 4-piperazin-1-yl-6,7,8,9-tetrahydro-benzo[4,5]thieno[3,2-d]pyrimidine]	0.454 µM
Cc1csc2c(N3CCN(C)CC3)nc(N)nc12 [Example 13, 7-Methyl-4-(4-methyl-piperazin-1-yl)thieno-amine trifluoroacetic acid salt]	0.574 µM
CN1CCN(c2nc(N)nc3cc(C(C)(C)C)sc23)CC1 [Example 15, 6-tert-Butyl-4-(4-methyl-piperazin-1-yl)thieno[3,2-d]pyrimidin-2-amine trifluoroacetic acid salt]	0.286 µM
CN[C@H]1CCN(c2nc(N)nc3cc(C(C)(C)C)sc23)C1 [Example 16, trifluoroacetic acid salt]	0.071 µM
CC(C)(C)c1cc2nc(N)nc(N3CCNCC3)c2s1 [Example 17, 6-tert-Butyl-4-piperazin-1-ylthieno[3,2-d]pyrimidin-2-amine trifluoroacetic acid salt]	0.142 µM
CC(C)(C)c1cc2nc(N)nc(N3CC4CCCNC4C3)c2s1 (stereo not drawn) [Example 19, 6-tert-Butyl-4-(octahydro-6H-pyrrolo[3,4-b]pyridin-6-yl)thieno[3,2-d]pyrimidin-2-amine trifluoroacetic acid salt]	0.244 µM
Nc1nc(N2C[C@H]3CCCN[C@H]3C2)c2oc3c(c2n1)CCCC3 [Example 20, 4-[(4aR,7aR)-Octahydro-6H-pyrrolo[3,4-b]pyridin-6-yl]-6,7,8,9-tetra-hydro[1]benzofuro[3,2-d]pyrimidin-2-amine trifluoroacetic acid salt]	0.005 µM
Nc1nc(N2CCCNCC2)c2oc3c(c2n1)CCCC3 [Example 22, 4-(1,4-Diazepan-1-yl)-6,7,8,9-tetrahydro[1]benzo-furo[3,2-d]pyrimidin-2-amine trifluoroacetic acid salt]	0.003 µM
Nc1nc(N2CC(N)C2)c2oc3c(c2n1)CCCC3 [Example 23, 4-(3-Aminoazetidin-1-yl)-6,7,8,9-tetrahydro[1]benzo-furo[3,s-d]pyrimidin-2-amine trifluoroacetic acid salt]	0.083 µM
Nc1nc(N2CC[C@@H](N)C2)c2oc3c(c2n1)CCCC3 [Example 24, 4-[(3R)-3-Aminopyrrolidin-1-yl-6,7,8,9-tetra-hydro[1]benzofuro[3,2-d]pyrimidin-2-aminetrifluoroacetic acid salt]	0.002 µM
NCCNc1nc(N)nc2c3c(oc12)CCCC3 [Example 25, N4-(2-Aminoethyl)-6,7,8,9-tetrahydro[1]benzofuro[3,2-d]pyrimidine-2,4-diamine trifluoroacetic acid salt]	0.507 µM
Nc1nc(N2CC3CCC(C2)N3)c2oc3c(c2n1)CCCC3 [Example 26, 4-(3,8-Diazabi-cyclo[3.2.1]oct-3-yl)-6,7,8,9-tetrahydro[1]benzofuro[3,2-d]pyrimidin-2-amine]	0.032 µM
NCCNc1ncnc2c3c(oc12)CCCC3 [Example 27, N-(6,7,8,9-Tetra-hydro[1]benzofuro[3,2-d]pyrimidin-4-yl]ethane-1,2-diamine]	> 10 µM
Nc1nc(N2C[C@H]3CCCN[C@H]3C2)c2sc3c(c2n1)CCCC3 [Example 32, 4-[(4aR,7aR)-Octahydro-6H-pyrrolo[3,4-b]pyridin-6-yl]-6,7,8,9-tetrahydro[1]benzo-thieno[3,2-,d]pyrimidin-2-amine]	0.002 µM
Nc1nc(N2C[C@H]3CNC[C@H]3C2)c2sc3c(c2n1)CCCC3 [Example 33]	0.39 µM
Nc1nc(N2CCC[C@H](N)C2)c2sc3c(c2n1)CCCC3 [Example 34, 4-[(3S)-3-Aminopiperidin-1-yl]-6,7,8,9-tetrahydro[1]ben-zothieno[3,2-d]pyrimidin-2-amine]	0.123 µM
Nc1nc(N2C[C@H]3C[C@@H]2CN3)c2sc3c(c2n1)CCCC3 [Example 36, 4-[(1R,4R)-2,5-Diazabicy-clo[2.2.1]hept-2-yl]-6,7,8,9-tetrahydro[1]benzothi-eno[3,2-d]pyrimidin-2-amine]	> 10 µM
Nc1nc(N2CCCNCC2)c2sc3c(c2n1)CCCC3 [Example 37, 4-(1,4-Diazepan-1-yl)-6,7,8,9-tetrahydro[1]benzo-thieno[3,2-d]pyrimidin-2-amine hydrochloric acid salt]	0.015 µM
CN[C@@H]1CN(c2nc(N)nc3c4c(sc23)CCCC4)C[C@@H]1O [Example 38, (3S,4S)-1-(2-Amino-6,7,8,9-tetrahydro[1]benzothieno[3,2-d]pyrimidin-4-yl)-4-(methyl-amino)pyrrolidin-3-of tri-fluoroacetic acid salt]	0.3 µM
